Experimental data as given in patent US20250025500A1, “PHOSPHATASE INHIBITORS AS NK CELLS MODULATORS FOR THE TREATMENT OF CANCER” (Kanyr Pharma Inc., priority 2021, published 2025).

Legend:
Type in all cases: cell-based, Human
[1] = system: NK-92 cells against K-562 cells; assay: NK-92 cytolytic assay against K-562 tumor target cells (flow cytometry); conditions: three days
Method: (§1) Human NK cell line NK-92 was purchased from American Type Culture Collection (ATCC) and cultured in α-MEM Essential Medium (no ribonucleoside and deoxyribonucleoside) supplemented with 0.2 mM Myo-inositol, 0.02 mM Folic Acid, 0.1 mM β-mercaptoethanol, 1% of Non-essential Amino Acids, 1×L-Glutamax, 1% of Penicillin/Streptomycin, 12.5% of heat-inactivated Horse, and 12.5% of heat-inactivated Characterized Fetal Bovine Serum or FBS. The media was supplemented freshly with 200 IU/mL of IL-2 upon cell thawing for one passage and 100 IU/mL of IL-2 for cell expansion. Human tumor cell lines K-562 and Reh were purchased from ATCC and were cultured in RPM11640 Medium supplemented with 1% of Penicillin/Streptomycin and 10% of heat inactivated FBS. HEK293T/17 cells and HCT116 cells were cultured in Dulbecco's Modified Eagle's Medium (DMEM) High Glucose Medium supplemented with 1% of Penicillin/Streptomycin and 10% of FBS. All cell lines were maintained in 5% CO2, 37° C. incubator, except that NK-92 were maintained in 6.5% CO2 incubator at 37° C. All cell lines were maintained below 30 passages and tested regularly for mycoplasma infection using PCR.
NK-92 anti-tumor cytolysis function was assessed by flow cytometry-based analysis. Tumor target cells K-562 and Reh were labelled with cell tracker CFSE ([…]) or CMRA (5 μM) according to manufacturer's protocol at a maximum of one day before cytolysis experiment. On the experiment day, labelled tumor target cells were washed once with PBS and resuspend to desired cell concentration in complete cell media. NK-92 cells were washed and resuspended in complete media without cytokines to desired cell concentration. NK-92 cells and tumor target cells were plated at various effector: target (E:T) ratios with basal cell numbers at 50,000 cells per well in round-bottom 96-well plate and were co-cultured for 3 hours in 5% CO2, 37° C. incubator. After co-culture, cells were washed once with ice-cold PBS and stained with fixable viability dyes: Aqua (Invitrogen™) or UV Blue (Invitrogen™) or eFluor 780 (eBioscience Invitrogen™) at 1:2000 in dark for 20 mins at 4° C. Stained cells were washed twice with ice cold PBS and were fixed with 1% Paraformaldehyde (PFA) for 1 hour or 2% PFA for 30 mins in dark at 4° C. Flow cytometry sample acquisition was performed with BDO LSRFortessa™ with a UV laser at Flow Cytometry Core Facility, McGill University, and data was analyzed with FlowJo™ 10.7.1 and summarized with Prism™ 9 (GraphPad™). Calculation for % of specific cytolysis was followed by the equation: […]

[2] = system: NK-92 cells against Reh cells; assay: NK-92 cytolytic assay against NK resistant Reh target cells; conditions: 30 μM three days, IL-2 100 IU/mL, 3 h assay
Method: as §1, with “All cell lines were maintained below 30 passages and tested regularly for mycoplasma infection using PCR.” left out
NK-92 anti-tumor cytolysis function was assessed by flow cytometry-based analysis. […] Flow cytometry sample acquisition was performed with BDO LSRFortessa™ with a UV laser at Flow Cytometry Core Facility, McGill University, and data was analyzed with FlowJo™ 10.7.1 and summarized with Prism™ 9 (GraphPad™). […]

[3] = system: NK-92 cells; assay: Lytic granule protein expression in NK-92 (flow cytometry, Western blot)
Method: (§2) Total cell lysate was prepared with modified RIPA buffer (1M Tris-HCl (pH 7.5), 5M NaCl, 0.25% sodium deoxycholate, 10% NP-40 and 10 mM sodium fluoride) supplemented with ethylenediaminetetraacetic acid (EDTA)-free protease inhibitor (Roche™) and 2 mM sodium orthovanadate (Sigma-Aldrich™). Protein levels were quantified by bicinchoninic acid (BCA) assay. Protein lysate was separated by 10% SDS-PAGE and Western analysis was performed using primary antibodies listed in the tables below followed with horseradish peroxidase (HRP, 1:10,000, Jackson ImmunoResearch™) conjugated secondary antibodies.
NK-92 cells pre-treated with L598 (30 μM) or vehicle control were stimulated with K-562 tumor target cells [effector: target (E:T) at 1:1] or PMA/lonomycin (1 μg/mL each) or no-stimulation control with K-562 complete media, respectively. Anti-CD107a or LAMP-1 antibody (1:100, PE/Cy7 conjugated, clone H4A3, from BioLegend®) was added to cells at the start of degranulation assay. Golgi stop (containing Monensin, 1 μM) and Golgi plug (containing Brefeldin A, 4 μg/mL) were added to cells one hour after degranulation assay started and were kept until the end of the 6-hour-degranulation assay. Intracellular staining of GrB (1:40, PE conjugated, clone QA18A28, from BioLegend®) and PRF (1:40, FITC conjugated, clone B-D48, from BioLegend®) were performed with the Fixation/Permeabilization Solution Kit (BD® Biosciences) according to the manufacture's protocol. Cells were stained with fixable viability dye (1:2000) for 20 mins on ice and in dark, and blocked with FcBlock (1:20, diluted in 1× Perm/Wash buffer, Human truStain FcX from BioLegend®) for 5 mins at room temperature and in dark before intracellular staining. Cell gating and percentage of population quantification was based on no-stimulation control. For kinetics of degranulation assay, measurements were taken over three hours at 15 mins, 30 mins, 60 mins, 120 mins and 180 mins, with L598 (30 μM, three days) treated group and vehicle control group under the condition of tumor target cell K-562 stimulation (E: T at 1:1) or no stimulation. Intracellular cytolytic granule contents GrA, GrB and PRF were measured as mentioned previously.

[4] = system: JAK/STAT signaling in NK-92 cells; assay: JAK/STAT signaling Western blot and IL-2 stimulation assay in NK-92; conditions: regular cell culture, inhibitor titration, three days
Method: as §2
For cytokine stimulation assay, NK-92 cells were pre-treated with L598 (30 μM) or vehicle control for three days. Before IL-2 stimulation, NK-92 cells were washed once with serum depleted cell media (no IL-2) and were starved for six hours in presence of L598 or vehicle control. After starvation, NK-92 cells were stimulated with IL-2 across a gradient concentration ranging from 0 to 90 IU/mL for 15 mins at 37° C. After incubation, cells were directly lysed with 2× concentrated TNE buffer and then boiled in 1× Laemmli Buffer to prepare cell lysates. Two independent experiments were performed.

Molecule: TGF-β1: immune regulatory cytokine added to NK-92 culture
- effect of added TGF-β1 on NK-92 cytolysis against K-562 ([1]; TGF-β 10 ng/mL, IL-2 media): significantly reduced

Molecule: KQ791
- tumor cytolysis by NK-92 against K-562 with inhibitor titration ([1]; dosage increased up to 90 μM, various E:T ratios): gradual increasing of tumor cytolysis
- NK-92 cytolysis towards NK resistant target cells Reh [2]: had no effect
- protein expression of perforin and granzyme B ([3]; gradual increasing concentration, three days): upregulated in a dosage dependent manner
- granzyme A protein expression ([3]; with or without inhibitor treatment): relatively stable
- phosphorylation of STAT2 and STAT6 [4]: relatively stable
- phosphorylation of STAT1, STAT3, STAT4 and STAT5 ([4]; dosage dependent): increased phosphorylation

B1: IL-4: Th2 cytokine IL-4 added to NK-92 culture (protein, UniProt P05112 25-153, looked up)
Interleukin-4: HKCDITLQEIIKTLNSLTEQKTLCTELTVTDIFAASKNTTEKETFCRAATVLRQFYSHHEKDTRCLGATAQQFHRHKQLIRFLKRLDRNLWGLAGLNSCPVKEANQSTLENFLERLKTIMREKYSKCSS
- effect of added IL-4 on NK-92 cytolysis against K-562 ([1]; IL-4 10 ng/mL, IL-2 media, with or without L598): did not reduce nor improve
